Measurements as given in PMC3739326 (The Biochemical journal, 2011).

Key:
[1] = tested on: lymphoblasts from SCA11-affected individuals; conditions: cycloheximide as inhibitor of nonsense-mediated decay; cited from earlier work
[2] = target: GST–TTBK2-(1–450) wild-type (Homo sapiens, UniProt Q6IQ55); assay: TTBK2 peptide kinase assay; assay type: biochemical
[3] = tested on: TTBK2[R181A or R181E] or TTBK2[A184G or A184E] mutants, GST–TTBK2-(1–450); assay: TTBK2 peptide kinase assay with phosphate-priming groove mutants; assay type: biochemical, human; conditions: read-out: Km of peptide phosphorylation by TTBK2 mutants, 0.1 mM [γ-32P]ATP, 20 min at 30 °C, non-linear regression

GST–TTBK2-(1–450) wild-type, sequence (Q6IQ55 1-450): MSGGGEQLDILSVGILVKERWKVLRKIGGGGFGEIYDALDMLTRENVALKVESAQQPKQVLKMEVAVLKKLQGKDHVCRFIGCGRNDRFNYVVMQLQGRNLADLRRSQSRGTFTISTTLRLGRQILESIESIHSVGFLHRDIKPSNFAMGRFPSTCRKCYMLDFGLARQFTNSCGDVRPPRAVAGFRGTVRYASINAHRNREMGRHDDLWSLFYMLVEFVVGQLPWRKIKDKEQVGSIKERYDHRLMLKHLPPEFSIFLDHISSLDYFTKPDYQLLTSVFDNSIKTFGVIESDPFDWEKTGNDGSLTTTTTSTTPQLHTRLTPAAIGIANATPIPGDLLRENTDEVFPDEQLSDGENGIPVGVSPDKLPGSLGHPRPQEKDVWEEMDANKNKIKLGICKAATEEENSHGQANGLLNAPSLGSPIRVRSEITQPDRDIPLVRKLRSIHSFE

C[C@@H]1C[C@@H]([C@H](O)CC2CC(=O)NC(=O)C2)C(=O)[C@@H](C)C1 [cycloheximide]
TTBK2 mRNA level [1]: increased TTBK2 mRNA to levels that are similar in the normal transcript

RRKDLHDDEEDEAMS*ITA [CK1tide, reference compound]
peptide phosphorylation by TTBK2 (in words) ([2]; TTBK2-(1–450)): phosphorylates CK1tide specifically at this serine residue

RRKDLHDDEEDEAMSIYpA [TTBKtide]
Km [3]: 100 to 150 µM
decrease of Km value by introducing a phosphotyrosine at the +2 position ([2]; relative to CK1tide): approximately 8 fold
Vmax of peptide phosphorylation by TTBK2 ([2]; wild-type TTBK2, 0.1 mM [γ-32P]ATP, 20 min at 30 °C, non-linear regression): 76 units/mg
